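96-well plates; 48 h exposure; 5 concentrations. Endpoints by linear interpolation between flanking doses. Not reached: highest tested concentration assigned. TGI: total growth inhibition.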
Key:
Test in all cases: NCI tumour cell line growth inhibition, 48 h
786-0 renal = test system: 786-0 renal
A498 renal = test system: A498 renal
A549 NSCLC = test system: A549 NSCLC
ACHN renal = test system: ACHN renal
BT-549 breast = test system: BT-549 breast
CAKI-1 renal = test system: CAKI-1 renal
CCRF-CEM leukemia = test system: CCRF-CEM leukemia
COLO 205 colon = test system: COLO 205 colon
DLD-1 colon = test system: DLD-1 colon
DMS 114 small cell lung = test system: DMS 114 small cell lung
DMS 273 small cell lung = test system: DMS 273 small cell lung
DU-145 prostate = test system: DU-145 prostate
EKVX NSCLC = test system: EKVX NSCLC
HCC-2998 colon = test system: HCC-2998 colon
HCT-116 colon = test system: HCT-116 colon
HCT-15 colon = test system: HCT-15 colon
HL-60(TB) leukemia = test system: HL-60(TB) leukemia
HOP-18 NSCLC = test system: HOP-18 NSCLC
HOP-62 NSCLC = test system: HOP-62 NSCLC
HOP-92 NSCLC = test system: HOP-92 NSCLC
HS 578T breast = test system: HS 578T breast
HT29 colon = test system: HT29 colon
IGROV1 ovarian = test system: IGROV1 ovarian
K-562 leukemia = test system: K-562 leukemia
KM12 colon = test system: KM12 colon
KM20L2 colon = test system: KM20L2 colon
LOX IMVI melanoma = test system: LOX IMVI melanoma
M14 melanoma = test system: M14 melanoma
M19-MEL melanoma = test system: M19-MEL melanoma
MALME-3M melanoma = test system: MALME-3M melanoma
MCF7 breast = test system: MCF7 breast
MDA-MB-231 breast = test system: MDA-MB-231 breast
MDA-MB-435 = test system: MDA-MB-435
MDA-N = test system: MDA-N
MOLT-4 leukemia = test system: MOLT-4 leukemia
NCI-H226 lung = test system: NCI-H226 lung
NCI-H23 lung = test system: NCI-H23 lung
NCI-H460 lung = test system: NCI-H460 lung
NCI-H522 lung = test system: NCI-H522 lung
NCI/ADR-RES ovarian = test system: NCI/ADR-RES ovarian
OVCAR-3 ovarian = test system: OVCAR-3 ovarian
OVCAR-4 ovarian = test system: OVCAR-4 ovarian
OVCAR-5 ovarian = test system: OVCAR-5 ovarian
OVCAR-8 ovarian = test system: OVCAR-8 ovarian
P388 leukemia = test system: P388 leukemia
P388/ADR leukemia = test system: P388/ADR leukemia
PC-3 prostate = test system: PC-3 prostate
RPMI-8226 leukemia = test system: RPMI-8226 leukemia
RXF 393 renal = test system: RXF 393 renal
SF-268 CNS = test system: SF-268 CNS
SF-295 CNS = test system: SF-295 CNS
SF-539 CNS = test system: SF-539 CNS
SK-MEL-2 melanoma = test system: SK-MEL-2 melanoma
SK-MEL-28 melanoma = test system: SK-MEL-28 melanoma
SK-MEL-5 melanoma = test system: SK-MEL-5 melanoma
SK-OV-3 ovarian = test system: SK-OV-3 ovarian
SN12C renal = test system: SN12C renal
SN12K1 renal = test system: SN12K1 renal
SNB-19 CNS = test system: SNB-19 CNS
SNB-75 CNS = test system: SNB-75 CNS
SNB-78 CNS = test system: SNB-78 CNS
SR leukemia = test system: SR leukemia
SW-620 colon = test system: SW-620 colon
T-47D breast = test system: T-47D breast
TK-10 renal = test system: TK-10 renal
U251 CNS = test system: U251 CNS
UACC-257 melanoma = test system: UACC-257 melanoma
UACC-62 melanoma = test system: UACC-62 melanoma
UO-31 renal = test system: UO-31 renal
XF 498 CNS = test system: XF 498 CNS

SMILES: NC(=O)c1[nH]nc(C2OC(CO)C(O)C2O)c1O (stereo not given)
- TGI (786-0 renal): > 2870 µM
- TGI (A498 renal): 444 µM
- TGI (A549 NSCLC): 289 µM
- TGI (ACHN renal): 1730 µM
- TGI (BT-549 breast): 1160 µM
- TGI (CAKI-1 renal): 158 µM
- TGI (CCRF-CEM leukemia): 2360 µM
- TGI (COLO 205 colon): 1660 µM
- TGI (DLD-1 colon): 447 µM
- TGI (DMS 114 small cell lung): 858 µM
- TGI (DMS 273 small cell lung): 210 µM
- TGI (DU-145 prostate): > 5000 µM
- TGI (EKVX NSCLC): 1960 µM
- TGI (HCC-2998 colon): 378 µM
- TGI (HCT-116 colon): 3770 µM
- TGI (HCT-15 colon): 838 µM
- TGI (HL-60(TB) leukemia): 63.7 µM
- TGI (HOP-18 NSCLC): 812 µM
- TGI (HOP-62 NSCLC): 478 µM
- TGI (HOP-92 NSCLC): 279 µM
- TGI (HS 578T breast): 1620 µM
- TGI (HT29 colon): 3420 µM
- TGI (IGROV1 ovarian): 1280 µM
- TGI (K-562 leukemia): 2290 µM
- TGI (KM12 colon): 2980 µM
- TGI (KM20L2 colon): > 5000 µM
- TGI (LOX IMVI melanoma): 309 µM
- TGI (M14 melanoma): 882 µM
- TGI (M19-MEL melanoma): > 3890 µM
- TGI (MALME-3M melanoma): 2660 µM
- TGI (MCF7 breast): 1060 µM
- TGI (MDA-MB-231 breast): 670 µM
- TGI (MDA-MB-435): 469 µM
- TGI (MDA-N): 923 µM
- TGI (MOLT-4 leukemia): 386 µM
- TGI (NCI-H226 lung): 2220 µM
- TGI (NCI-H23 lung): 386 µM
- TGI (NCI-H460 lung): 415 µM
- TGI (NCI-H522 lung): 1050 µM
- TGI (NCI/ADR-RES ovarian): 105 µM
- TGI (OVCAR-3 ovarian): 424 µM
- TGI (OVCAR-4 ovarian): 520 µM
- TGI (OVCAR-5 ovarian): 2830 µM
- TGI (OVCAR-8 ovarian): 212 µM
- TGI (P388 leukemia): 802 µM
- TGI (P388/ADR leukemia): 241 µM
- TGI (PC-3 prostate): 794 µM
- TGI (RPMI-8226 leukemia): 1830 µM
- TGI (RXF 393 renal): 551 µM
- TGI (SF-268 CNS): 3560 µM
- TGI (SF-295 CNS): 848 µM
- TGI (SF-539 CNS): 505 µM
- TGI (SK-MEL-2 melanoma): 843 µM
- TGI (SK-MEL-28 melanoma): > 5000 µM
- TGI (SK-MEL-5 melanoma): 4090 µM
- TGI (SK-OV-3 ovarian): 460 µM
- TGI (SN12C renal): 819 µM
- TGI (SN12K1 renal): 663 µM
- TGI (SNB-19 CNS): > 4620 µM
- TGI (SNB-75 CNS): 840 µM
- TGI (SNB-78 CNS): 2820 µM
- TGI (SR leukemia): > 232 µM
- TGI (SW-620 colon): 2050 µM
- TGI (T-47D breast): > 2990 µM
- TGI (TK-10 renal): 2320 µM
- TGI (U251 CNS): 4010 µM
- TGI (UACC-257 melanoma): > 5000 µM
- TGI (UACC-62 melanoma): 579 µM
- TGI (UO-31 renal): 1020 µM
- TGI (XF 498 CNS): 247 µM

Source: PubChem BioAssay (NCI)
